Experimental findings from ChEMBL document CHEMBL3991601, “The target landscape of clinical kinase drugs” (Science, 2017) are described below.

SMILES strings stand for the structures. pKd: −log10 of the molar value. Calls of active or inactive are those of the source. On the calls: in the data inactive means no Kd found up to 30 µM. Where only a bound is given, the exact number is not on record here.

In general, pKd refers to the Kd on a negative log10 scale, so that one unit is a factor of ten. The low end stands for a large Kd, the high end for a small Kd.

Assay [1] addresses ALK tyrosine kinase receptor (Homo sapiens, UniProt Q9UM73). The class given is subcellular, K-562, COLO 205, SK-N-BE(2) and MV-4-11, Cell lysate. The settings on record: read-out: Kd apparent.
The target of assay [2] is Eukaryotic peptide chain release factor GTP-binding subunit ERF3B (Homo sapiens, UniProt Q8IYD1).
Assay [3] deals with Uncharacterized aarF domain-containing protein kinase 5 (Homo sapiens, UniProt Q3MIX3).
For assay [4], the target named is Serine/threonine-protein kinase ATR (Homo sapiens, UniProt Q13535).
In assay [5] the target is T1, Cyclin-dependent kinase-like 5 (Homo sapiens, UniProt O76039).
T1 sequence (O76039 whole entry): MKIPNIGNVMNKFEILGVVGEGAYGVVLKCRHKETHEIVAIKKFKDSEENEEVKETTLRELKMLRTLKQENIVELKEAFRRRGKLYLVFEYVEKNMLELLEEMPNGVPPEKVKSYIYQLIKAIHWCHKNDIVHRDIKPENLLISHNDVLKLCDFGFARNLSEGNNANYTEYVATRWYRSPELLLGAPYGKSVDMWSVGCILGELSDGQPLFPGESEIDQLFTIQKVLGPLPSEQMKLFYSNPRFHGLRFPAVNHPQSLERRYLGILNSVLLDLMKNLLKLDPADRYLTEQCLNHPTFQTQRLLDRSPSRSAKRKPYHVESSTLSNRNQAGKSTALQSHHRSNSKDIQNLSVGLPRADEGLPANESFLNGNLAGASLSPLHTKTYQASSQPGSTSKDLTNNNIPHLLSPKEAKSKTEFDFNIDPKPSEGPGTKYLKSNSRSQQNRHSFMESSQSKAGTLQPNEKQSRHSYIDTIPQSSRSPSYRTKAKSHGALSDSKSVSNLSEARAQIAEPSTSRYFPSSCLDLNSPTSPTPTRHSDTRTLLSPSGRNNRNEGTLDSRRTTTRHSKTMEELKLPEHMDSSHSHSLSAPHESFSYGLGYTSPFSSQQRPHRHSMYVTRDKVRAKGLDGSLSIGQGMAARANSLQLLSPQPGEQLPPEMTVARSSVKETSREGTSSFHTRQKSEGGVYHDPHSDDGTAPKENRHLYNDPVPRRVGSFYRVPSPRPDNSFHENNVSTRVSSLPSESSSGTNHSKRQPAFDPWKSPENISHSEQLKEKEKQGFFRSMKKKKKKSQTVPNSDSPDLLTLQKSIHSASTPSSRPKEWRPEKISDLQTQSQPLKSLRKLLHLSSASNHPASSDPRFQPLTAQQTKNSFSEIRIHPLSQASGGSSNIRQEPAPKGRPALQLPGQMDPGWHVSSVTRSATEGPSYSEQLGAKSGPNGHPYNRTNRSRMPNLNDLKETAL

Assay [6] concerns the target Dual specificity protein kinase CLK4 (Homo sapiens, UniProt Q9HAZ1).
The target of assay [7] is Tyrosine-protein kinase Fgr (Homo sapiens, UniProt P09769).
Assay [8] deals with Tyrosine-protein kinase JAK2 (Homo sapiens, UniProt O60674).
For assay [9], the target named is Serine/threonine-protein kinase 38-like (Homo sapiens, UniProt Q9Y2H1).
The target of assay [10] is Cell division cycle 7-related protein kinase (Homo sapiens, UniProt O00311).
Assay [11] has as its target Serine/threonine-protein kinase 38 (Homo sapiens, UniProt Q15208).
In assay [12] the target is Serine/threonine-protein kinase pim-2 (Homo sapiens, UniProt Q9P1W9).
Assay [13] concerns the target Activin receptor type-1-like (Homo sapiens, UniProt P37023).
Assay [14] deals with Dual specificity tyrosine-phosphorylation-regulated kinase 1B (Homo sapiens, UniProt Q9Y463).
Assay [15] deals with Cyclin-dependent kinase 10 (Homo sapiens, UniProt Q15131).

Serine/threonine-protein kinase 38, sequence (Q15208 whole entry): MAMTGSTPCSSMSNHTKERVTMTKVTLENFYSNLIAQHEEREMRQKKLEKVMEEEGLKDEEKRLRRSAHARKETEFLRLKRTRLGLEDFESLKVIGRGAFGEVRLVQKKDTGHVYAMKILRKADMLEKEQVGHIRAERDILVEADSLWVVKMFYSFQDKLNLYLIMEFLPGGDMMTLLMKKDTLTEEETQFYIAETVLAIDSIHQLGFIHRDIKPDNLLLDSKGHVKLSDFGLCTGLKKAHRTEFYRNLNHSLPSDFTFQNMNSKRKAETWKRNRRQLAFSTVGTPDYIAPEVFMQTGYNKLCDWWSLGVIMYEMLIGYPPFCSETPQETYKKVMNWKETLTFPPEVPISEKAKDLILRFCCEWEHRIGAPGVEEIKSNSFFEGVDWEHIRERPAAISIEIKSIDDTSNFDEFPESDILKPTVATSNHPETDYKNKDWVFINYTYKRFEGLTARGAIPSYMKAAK
Serine/threonine-protein kinase pim-2, sequence (Q9P1W9 whole entry): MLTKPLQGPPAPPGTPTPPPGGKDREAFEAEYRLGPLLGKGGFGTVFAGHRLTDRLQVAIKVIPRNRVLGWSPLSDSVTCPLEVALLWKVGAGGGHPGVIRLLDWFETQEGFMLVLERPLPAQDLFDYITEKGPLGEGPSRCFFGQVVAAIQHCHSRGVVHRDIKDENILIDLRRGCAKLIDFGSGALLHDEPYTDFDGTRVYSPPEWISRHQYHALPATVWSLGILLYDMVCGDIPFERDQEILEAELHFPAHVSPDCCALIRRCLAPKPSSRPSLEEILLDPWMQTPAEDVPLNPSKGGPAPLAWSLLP
Dual specificity protein kinase CLK4, sequence (Q9HAZ1 whole entry): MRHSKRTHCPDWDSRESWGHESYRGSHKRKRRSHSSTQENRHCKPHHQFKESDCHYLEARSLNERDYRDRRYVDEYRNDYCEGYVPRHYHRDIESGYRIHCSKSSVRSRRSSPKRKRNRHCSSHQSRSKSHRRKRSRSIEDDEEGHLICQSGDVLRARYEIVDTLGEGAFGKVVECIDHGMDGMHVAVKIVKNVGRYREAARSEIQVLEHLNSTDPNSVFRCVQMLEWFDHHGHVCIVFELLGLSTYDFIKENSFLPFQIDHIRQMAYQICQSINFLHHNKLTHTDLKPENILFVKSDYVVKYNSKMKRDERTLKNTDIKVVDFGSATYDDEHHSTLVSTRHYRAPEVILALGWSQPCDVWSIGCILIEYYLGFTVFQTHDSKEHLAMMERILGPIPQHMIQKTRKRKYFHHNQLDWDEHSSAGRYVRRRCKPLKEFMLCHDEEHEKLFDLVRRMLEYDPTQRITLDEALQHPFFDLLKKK
Cell division cycle 7-related protein kinase, sequence (O00311 whole entry): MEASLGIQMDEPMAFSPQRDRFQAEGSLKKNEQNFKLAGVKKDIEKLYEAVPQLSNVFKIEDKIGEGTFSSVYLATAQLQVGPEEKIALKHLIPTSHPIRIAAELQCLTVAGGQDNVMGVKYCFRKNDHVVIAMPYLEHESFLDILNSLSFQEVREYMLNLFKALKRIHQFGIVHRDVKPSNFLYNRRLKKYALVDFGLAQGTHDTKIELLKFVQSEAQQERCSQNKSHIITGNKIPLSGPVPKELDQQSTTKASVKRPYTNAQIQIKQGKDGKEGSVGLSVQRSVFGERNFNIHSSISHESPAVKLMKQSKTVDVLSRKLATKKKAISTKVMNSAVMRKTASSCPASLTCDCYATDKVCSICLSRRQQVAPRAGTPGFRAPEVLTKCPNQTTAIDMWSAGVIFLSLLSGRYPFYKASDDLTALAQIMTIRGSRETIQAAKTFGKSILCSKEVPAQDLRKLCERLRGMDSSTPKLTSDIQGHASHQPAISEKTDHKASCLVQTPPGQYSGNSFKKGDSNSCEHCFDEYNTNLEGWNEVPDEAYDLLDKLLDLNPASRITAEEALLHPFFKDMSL
Serine/threonine-protein kinase ATR, sequence (Q13535 whole entry): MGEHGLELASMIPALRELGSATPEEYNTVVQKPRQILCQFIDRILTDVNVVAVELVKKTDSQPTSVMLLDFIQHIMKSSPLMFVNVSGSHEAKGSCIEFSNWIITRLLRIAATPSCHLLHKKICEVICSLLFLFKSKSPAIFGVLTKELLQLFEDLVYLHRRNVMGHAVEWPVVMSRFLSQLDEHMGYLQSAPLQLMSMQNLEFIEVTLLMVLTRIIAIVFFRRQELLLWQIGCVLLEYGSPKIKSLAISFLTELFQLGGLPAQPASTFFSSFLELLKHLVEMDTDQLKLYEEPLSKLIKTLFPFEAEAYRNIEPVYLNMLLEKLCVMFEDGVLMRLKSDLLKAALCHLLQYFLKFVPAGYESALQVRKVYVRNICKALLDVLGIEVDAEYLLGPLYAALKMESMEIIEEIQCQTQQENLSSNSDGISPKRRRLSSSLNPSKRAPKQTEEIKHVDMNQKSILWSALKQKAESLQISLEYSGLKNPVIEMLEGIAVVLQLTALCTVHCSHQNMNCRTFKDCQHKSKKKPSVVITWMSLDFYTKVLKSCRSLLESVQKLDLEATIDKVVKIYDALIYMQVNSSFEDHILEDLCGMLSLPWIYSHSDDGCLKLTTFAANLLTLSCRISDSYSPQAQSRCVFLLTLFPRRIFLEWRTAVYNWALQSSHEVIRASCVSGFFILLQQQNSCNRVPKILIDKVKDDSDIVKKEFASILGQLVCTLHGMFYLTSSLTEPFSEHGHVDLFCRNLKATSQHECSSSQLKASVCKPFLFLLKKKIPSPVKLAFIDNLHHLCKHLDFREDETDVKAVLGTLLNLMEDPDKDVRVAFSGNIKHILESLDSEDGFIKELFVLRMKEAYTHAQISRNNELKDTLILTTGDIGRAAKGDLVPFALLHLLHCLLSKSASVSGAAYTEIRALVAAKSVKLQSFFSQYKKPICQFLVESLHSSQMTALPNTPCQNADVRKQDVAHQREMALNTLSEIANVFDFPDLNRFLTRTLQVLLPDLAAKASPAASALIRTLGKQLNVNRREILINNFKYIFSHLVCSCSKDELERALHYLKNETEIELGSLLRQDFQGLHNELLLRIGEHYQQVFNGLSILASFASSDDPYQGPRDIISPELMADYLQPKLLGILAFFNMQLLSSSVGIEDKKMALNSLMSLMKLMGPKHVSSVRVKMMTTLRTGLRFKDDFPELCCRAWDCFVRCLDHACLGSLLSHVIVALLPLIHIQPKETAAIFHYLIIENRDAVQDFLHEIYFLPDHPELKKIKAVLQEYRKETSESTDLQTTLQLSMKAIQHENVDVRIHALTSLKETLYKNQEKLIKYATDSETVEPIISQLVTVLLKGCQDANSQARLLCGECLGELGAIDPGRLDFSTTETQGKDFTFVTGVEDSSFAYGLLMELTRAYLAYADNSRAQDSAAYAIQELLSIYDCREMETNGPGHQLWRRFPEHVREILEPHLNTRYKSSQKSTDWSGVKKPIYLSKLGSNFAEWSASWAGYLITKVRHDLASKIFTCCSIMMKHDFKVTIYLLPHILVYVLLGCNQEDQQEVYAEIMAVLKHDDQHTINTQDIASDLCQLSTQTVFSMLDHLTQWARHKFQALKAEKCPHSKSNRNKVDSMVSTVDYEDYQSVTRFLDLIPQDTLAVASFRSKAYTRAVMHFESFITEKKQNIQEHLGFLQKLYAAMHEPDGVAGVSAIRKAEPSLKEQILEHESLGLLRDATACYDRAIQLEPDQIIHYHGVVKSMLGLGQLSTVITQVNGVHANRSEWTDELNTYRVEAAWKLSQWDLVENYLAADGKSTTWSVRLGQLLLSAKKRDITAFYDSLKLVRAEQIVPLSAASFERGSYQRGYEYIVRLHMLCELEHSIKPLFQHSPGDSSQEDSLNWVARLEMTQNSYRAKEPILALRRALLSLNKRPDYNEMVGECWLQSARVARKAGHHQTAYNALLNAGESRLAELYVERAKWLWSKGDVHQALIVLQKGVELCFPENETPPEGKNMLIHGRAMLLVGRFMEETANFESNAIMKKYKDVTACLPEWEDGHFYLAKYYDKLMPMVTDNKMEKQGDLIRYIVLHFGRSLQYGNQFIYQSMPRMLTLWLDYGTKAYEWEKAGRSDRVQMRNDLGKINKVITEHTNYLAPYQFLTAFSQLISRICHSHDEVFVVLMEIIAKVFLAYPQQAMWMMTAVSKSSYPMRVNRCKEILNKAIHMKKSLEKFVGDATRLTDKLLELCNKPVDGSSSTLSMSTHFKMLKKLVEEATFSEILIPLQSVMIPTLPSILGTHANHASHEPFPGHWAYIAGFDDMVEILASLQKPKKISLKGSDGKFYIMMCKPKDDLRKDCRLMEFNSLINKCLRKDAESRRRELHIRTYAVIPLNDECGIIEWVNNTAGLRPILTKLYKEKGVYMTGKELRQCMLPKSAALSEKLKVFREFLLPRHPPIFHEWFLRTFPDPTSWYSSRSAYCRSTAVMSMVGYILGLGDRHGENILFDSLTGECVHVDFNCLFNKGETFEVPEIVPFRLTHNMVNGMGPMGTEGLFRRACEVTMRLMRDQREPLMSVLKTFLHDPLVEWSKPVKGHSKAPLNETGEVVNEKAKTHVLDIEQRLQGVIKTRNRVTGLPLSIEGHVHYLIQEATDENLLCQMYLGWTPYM
Serine/threonine-protein kinase 38-like, sequence (Q9Y2H1 whole entry): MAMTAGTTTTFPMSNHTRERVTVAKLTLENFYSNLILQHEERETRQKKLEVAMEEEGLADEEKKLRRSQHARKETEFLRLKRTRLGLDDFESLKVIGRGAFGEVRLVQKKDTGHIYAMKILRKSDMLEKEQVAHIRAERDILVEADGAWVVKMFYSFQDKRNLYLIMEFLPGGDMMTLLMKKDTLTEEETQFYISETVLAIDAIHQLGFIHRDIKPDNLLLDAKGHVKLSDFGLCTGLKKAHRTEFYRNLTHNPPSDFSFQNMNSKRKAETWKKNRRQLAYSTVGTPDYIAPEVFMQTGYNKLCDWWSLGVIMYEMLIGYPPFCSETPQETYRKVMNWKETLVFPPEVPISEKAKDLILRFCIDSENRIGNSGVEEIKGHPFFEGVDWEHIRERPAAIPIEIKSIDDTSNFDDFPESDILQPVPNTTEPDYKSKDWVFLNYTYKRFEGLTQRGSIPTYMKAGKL

With `CC(=O)c1cnc2ccc(-c3cc(Cl)c(O)c(Cl)c3)nc2c1N[C@H]1CC[C@H](CN(C)C)CC1`, the Kd in [1] and in assay [2] was > 30 µM (inactive) in each case.

Regarding `Cc1nc2cc(-c3nn(C(C)C)c4ncnc(N)c34)ccc2o1`, the Kd in assay [3], in [4], in assay [5], in assay [6], in [7] and in assay [2] was > 30 µM (inactive) each time. The Kd in assay [8] and in assay [9] was > 30 µM (inactive) in each case.

As to `COCc1c(-c2ccc(NC(=O)Nc3cc(C(F)(F)F)ccc3F)c(F)c2)c2c(N)ncnn2c1CN1CCOCC1`, the Kd in assay [1], in assay [4], in assay [10], in assay [5], in assay [6] and in [11] was > 30 µM (inactive) each time.

In the case of `Nc1ncnc2c1c(-c1cccc(OCc3ccccc3)c1)cn2[C@H]1C[C@@H](CN2CCC2)C1` [AEW-541], the Kd in assay [1], in [12] and in assay [9] was > 30 µM (inactive) throughout. Moreover, in assay [4], the pKd was 8.30.

With `Cc1csc(-c2nnc(Nc3ccc(Oc4ncccc4-c4ccnc(N)n4)cc3)c3ccccc23)c1` [AMG-900], the Kd in assay [13], in assay [3], in [6], in assay [8], in [12] and in assay [11] was > 30 µM (inactive) throughout.

On to `C=CC(=O)Nc1cc2c(Nc3ccc(F)c(Cl)c3)ncnc2cc1C#CC(C)(C)N1CCN(C)CC1` [AV-412 FREE BASE], for which the Kd in [3], in [4], in assay [5], in [6], in assay [14] and in [12] was > 30 µM (inactive) each time.

In the case of `NC(=O)Nc1cc(-c2cccc(F)c2)sc1C(=O)N[C@H]1CCCNC1` [AZD-7762], the Kd in assay [13], in [3], in assay [15], in [6] and in assay [12] was > 30 µM (inactive) in each case.

As to `Cc1cc(C(=O)NOCCO)c(Nc2ccc(I)cc2F)n(C)c1=O` [AZD-8330], the Kd in assay [13], in assay [3], in assay [5], in assay [7] and in assay [8] was > 30 µM (inactive) each time.

For the molecule `Cn1cnc2c(F)c(Nc3ccc(Br)cc3F)c(C(=O)NOCCO)cc21` [BINIMETINIB], the Kd in [13], in [3], in assay [4], in assay [10], in assay [15] and in [6] was > 30 µM (inactive) each time. The Kd in assay [7], in assay [12] and in assay [9] was > 30 µM (inactive) in each case.

For the molecule `Cc1cc(Nc2ncc(Cl)c(Nc3ccccc3S(=O)(=O)C(C)C)n2)c(OC(C)C)cc1C1CCNCC1` [CERITINIB], the Kd in assay [3], in [4], in assay [5], in [14], in [12] and in assay [11] was > 30 µM (inactive) each time. In addition, in assay [9], the Kd is > 30 µM (inactive).

Turning to `COCC(=O)NC/C=C/c1ccc2ncnc(Nc3ccc(Oc4ccc(C)nc4)c(C)c3)c2c1` [CP-724714], the Kd in assay [1], in assay [3], in [4], in assay [10], in assay [5] and in assay [6] was > 30 µM (inactive) throughout. The Kd in assay [12] and in assay [9] was > 30 µM (inactive) each time.

For the molecule `CC(C)(C)c1nc(-c2cccc(NS(=O)(=O)c3c(F)cccc3F)c2F)c(-c2ccnc(N)n2)s1` [DABRAFENIB], the Kd in assay [3], in [10], in [15], in [5], in [6] and in assay [14] was > 30 µM (inactive) in each case. The Kd was 1.55 µM (active) in assay [7], > 30 µM (inactive) in assay [2] and > 30 µM (inactive) in [12].

Consider `Cc1cccc(-c2nn3c(c2-c2ccnc4ccc(C(N)=O)cc24)CCC3)n1` [GALUNISERTIB], for which the Kd in assay [1], in assay [4], in assay [6], in assay [14], in assay [2] and in assay [12] was > 30 µM (inactive) each time.

For `CCn1cc(-c2ccnc3[nH]c(-c4cccc(CN(C)C)c4)cc23)c(-c2ccc(NC(=O)N(C)C)cc2)n1` [GSK-1070916], the Kd in assay [3], in [5], in assay [6], in [14], in [7] and in assay [8] was > 30 µM (inactive) each time. For the same molecule, the Kd in [12] and in [11] was > 30 µM (inactive) each time.

In the case of `NC1(c2ccc(-c3nc4ccn5c(=O)[nH]nc5c4cc3-c3ccccc3)cc2)CCC1` [MK-2206], the Kd in assay [10] and in assay [14] was > 30 µM (inactive) throughout.

As to `Cn1cc(-c2cnc3ccc4ccc(CS(=O)(=O)NCc5ccccn5)cc4c(=O)c3c2)cn1` [MK-8033], the Kd in assay [13], in assay [3], in assay [4], in assay [10], in assay [6] and in assay [14] was > 30 µM (inactive) throughout. The Kd in assay [2], in [8] and in assay [12] was > 30 µM (inactive) each time.

For the molecule `N#CC1(c2ccc(NC(=O)c3cccnc3NCc3ccncc3)cc2)CCCC1` [RIVOCERANIB], the Kd in assay [3], in [4], in assay [10], in assay [5], in assay [6] and in assay [14] was > 30 µM (inactive) throughout. In addition, the Kd in assay [8] and in assay [9] was > 30 µM (inactive) in each case.

Regarding `O=C(Cc1ccc(-c2ccc(OCCN3CCOCC3)cc2)cn1)NCc1ccccc1` [TIRBANIBULIN], the Kd in assay [13], in assay [3], in assay [6], in assay [14], in assay [7] and in assay [2] was > 30 µM (inactive) throughout. Moreover, the Kd in [8], in assay [12], in assay [11] and in assay [9] was > 30 µM (inactive) throughout.

With `C[C@@H](NC(=O)c1ncnc(N)c1Cl)c1ncc(C(=O)Nc2cc(C(F)(F)F)c(Cl)cn2)s1` [TOVORAFENIB], the Kd in assay [3], in [4], in assay [10], in assay [15], in [5] and in assay [6] was > 30 µM (inactive) each time. The Kd in assay [14], in assay [12] and in assay [9] was > 30 µM (inactive) in each case.
